This is an account of results in ChEMBL document CHEMBL1155613, “Urinary metabolites of gallic acid in rats and their radical-scavenging effects on 1,1-diphenyl-2-picrylhydrazyl radical” (J Nat Prod, 2000).

The subject of this experiment is Radical scavenging activity. In words: Antioxidant activity assessed as DPPH free radical scavenging activity. It counts as functional. (In general: DPPH is a stable violet radical that fades when it is reduced.)
A word on the EC50: it is the concentration needed to bring the measured effect to its halfway point. As for `COc1c(O)cc(C(=O)O)cc1OS(=O)(=O)O`, the EC50 is above 100 µM. As to `COc1c(O)cc(C(=O)O)cc1O`, the EC50 is above 100 µM.

With `COc1c(O)cccc1O[C@@H]1O[C@H](C(=O)O)[C@@H](O)[C@H](O)[C@H]1O`, the half-maximal effective concentration (EC50) was above 100 µM.

On to `Cc1c(C)c2c(c(C)c1O)CCC(C)(CCCC(C)CCCC(C)CCCC(C)C)O2` (racemic) [alpha-TOCHOPHEROL], for which the EC50 is 19.9 µM.

On to `COc1c(O)cccc1O` [2-METHOXYRESORCINOL], for which the EC50 was 99.6 µM. In the case of `O=C1O[C@H]([C@@H](O)CO)C(O)=C1O` [ASCORBIC ACID], the 50% effective concentration (EC50) stood at 16.6 µM. In the case of `O=C(O)c1cc(O)c(O)c(O)c1` [GALLIC ACID], the EC50 is 4.2 µM. Then `Oc1cccc(O)c1O` [PYROGALLOL], with 4.2 µM.
